Measured values published in patent US20100255045A1, “COMPOSITION FOR PHOTODYNAMIC SKIN TREATMENT” (priority 2007, published 2010).

Columns and labels:
[1] = Water-solubility; assay type: physicochemical; conditions: compared with chlorophyll
[2] = test system: skin; assay: Applicant's studies of chlorophyllin combined with aminolevulinic acid

Q: For chlorophyllin, which water-solubility [1] is on record?
A: The water-solubility was “good water-solubility”.

Q: And the “effectiveness of aminolevulinic acid” value [2]?
A: Its value is “promoting the effectiveness”.

Q: What about the “protective role against side effects of aminolevulinic acid (erythema)” value [2] of the same substance?
A: The value was “preventing in particular the appearance of erythema”.
